Data taken from US8680300B2, “Dioxanes derived from regrouping carbohydrates and C-glycosides, process for obtaining same and uses thereof” (Universidad de la Laguna, priority 2009, dated 2014).

Key:
MCF7 breast cancer cells [1] = test: Cell proliferation trial, cell line MCF7; assay type: cell-based, human
Protocol: (§1) Two stable cell lines of different origins were used for these trials: neural cell line HT22 from mouse hippocampus and line MCF7 from human breast cancer.
(§2) Both cell lines were grown in a DMEM culture medium supplemented with 10% foetal bovine serum and antibiotics at 37° C. with a 5% CO2 atmosphere. 35-mm Petri dishes were used as growth media. When the cultures reached approximately 80% confluence they were exposed to the different compounds of the study for 24 hours at 37° C., at concentrations of 0.1, 1 and 5 μM. The compounds were previously diluted in DMSO.
(§3) For the cytotoxicity trials, after 24 hours of treatment with the compounds, the cells were treated with trypsin, resuspending them in DMEM and counting them. On one hand, an aliquot of 100 μl was preserved for the total count of the cells present in Neubauer chambers. On the other, the rest of the cell volume (approximately 1 ml) was processed for dyeing with trypan blue to visualise those cells susceptible to dyeing (non-viable cells) against intact cells (viable cells). To this end, the ViCell (Beckman Coulter) quantifier was used.

neural cell line HT22 [2] = test: Cell proliferation trial, cell line HT22; assay type: cell-based, mouse; details: for antiproliferative effect (conclusion, in words): HT22; for decrease in normal proliferation: HT22, 24 hours, versus medium (DMSO at 0.01%), concentration not given
Protocol: as §1, §2, §3

MCF7 breast cancer cells [3] = test: Cytotoxicity trial, trypan blue dye, cell line MCF7; assay type: cell-based, human; details: for cytotoxicity (conclusion, in words): MCF7, concentrations of 1 and 5 μM
Protocol: as §1, §2, §3

neural cell line HT22 [4] = test: Cytotoxicity trial, trypan blue dye, cell line HT22; assay type: cell-based, mouse; details: HT22, concentrations of 1 and 5 μM
Protocol: as §1, §2, §3

cell line HT22 = test: Visualisation of HT22 cultures after exposure to the compounds; assay type: cell-based, mouse; details: HT22, 5 μM, after 4-5 hours of treatment
Protocol: as §1
(§4) Both cell lines were grown in a DMEM culture medium supplemented with 10% foetal bovine serum and antibiotics at 37° C. with a 5% CO2 atmosphere. 35-mm Petri dishes were used as growth media. […] The compounds were previously diluted in DMSO.
(§5) (The control cultures of FIG. 3 were compared to the cultures of HT22 and MCF7 exposed to the compounds—FIGS. 4 and 5 respectively—).

cell line MCF7 = test: Visualisation of MCF7 cultures after exposure to the compounds; assay type: cell-based, human; details: MCF7, 5 μM, after 4-5 hours of treatment
Protocol: as §1, §4, §5

| Compound | antiproliferative effect (conclusion, in words) (MCF7 breast cancer cells [1]; MCF7) | proliferation inhibition (in words) (MCF7 breast cancer cells [1]; MCF7, 24 hours, versus medium (DMSO at 0.01%)) | antiproliferative effect (conclusion, in words) (neural cell line HT22 [2]) | decrease in normal proliferation (neural cell line HT22 [2]) | cytotoxicity (conclusion, in words) (MCF7 breast cancer cells [3]) | cytotoxicity (conclusion, in words) (neural cell line HT22 [4]) | cytotoxic effect on visualisation of cultures (cell line HT22) | cytotoxic effect on visualisation of cultures (cell line MCF7) | toxicity (percentage of cell death, trypan blue) (MCF7 breast cancer cells [3]; MCF7, 24 hours, normalised to medium (DMSO at 0.01%), concentration not given) [%] | toxicity (in words) (MCF7 breast cancer cells [3]; MCF7, 24 hours, concentration not given) |
| --- | --- | --- | --- | --- | --- | --- | --- | --- | --- | --- |
| CO[C@H]1O[C@@H]2OC[C@@H](OC)[C@@H]2O[C@@H]1OC [Compound 8] | antiproliferative effects | partial proliferation inhibition | antiproliferative effects | approximately 50% | – | – | – | – | – | – |
| CO[C@H]1O[C@@H](OC(C)=O)[C@H]([C@@H](COC(C)=O)OC)O[C@@H]1OC [Compound 6] | – | – | – | – | highly cytotoxic | highly cytotoxic | significant cytotoxic effect | significant cytotoxic effect | – | – |
| CO[C@@H]1O[C@@H]2OC[C@@H](OC)[C@@H]2O[C@@H]1OC [Compound 9] | – | – | antiproliferative effects | approximately 50% | – | – | – | – | > 65 | high toxicity |
| CO[C@@H]1O[C@@H](OC(C)=O)[C@H]([C@@H](COC(C)=O)OC)O[C@@H]1OC [Compound 7] | – | – | – | – | highly cytotoxic | highly cytotoxic | significant cytotoxic effect | significant cytotoxic effect | – | – |
